Numbers after ± are expanded uncertainties.

For one data set the following is noted: 298.15 K; 101.33 kPa; Crystal.
A word on the mass density: it is the mass of a sample divided by its volume. Turning to `c1ccc2[nH]ccc2c1` [1H-indole], the mass density is 1216.68 ± 1.9 kg/m3.

Staying with this data set, now noted: 298.15 K; 101.33 kPa; Liquid.
For `Nc1ccccc1` [aniline], the mass density worked out at 1017.42 ± 0.2 kg/m3.

On to `CCCCCCCCCCCCCCCC` [hexadecane], for which the mass density is listed as 773.19 ± 0.32 kg/m3.

As to `c1ccncc1` [pyridine], the mass density was 978.25 ± 0.27 kg/m3.

`c1cc[nH]c1` [pyrrole]: the mass density is listed as 965.9 ± 2.9 kg/m3.

For the compound `c1ccc2ncccc2c1` [quinoline], the mass density stood at 1089.45 ± 0.31 kg/m3.
